From patent US20120184590A1, “FORMULATIONS OF INDOLE-3-CARBINOL DERIVED ANTITUMOR AGENTS WITH INCREASED ORAL BIOAVAILABILITY” (UNIVERSITY OF KANSAS, priority 2009, published 2012)
Values after ≈ are worked out from the molar mass of the structure shown.

What was measured:
[1] = Solubility of SR13668 in various solvents; assay type: physicochemical; conditions: for solubility: thermodynamic from solid
Source text: The other three systems are similar to the Solutol solutions, but the Solutol is the best candidate having the lowest freezing point (see Table 10) and a high SR13668 solubility (see Table 11). […] Vit E TPGS is water soluble natural-source vitamin E d-alpha tocopheryl polyethyleneglycol succinate, 387 IU/g. Myrj is Polyethylene Glycol (50) Monostearate.

[2] = Stability of SR13668 in Solutol (25° C. and 4° C.), HPLC/Fluorescence; assay type: physicochemical; conditions: for stability: 25° C. and 4° C.; for SR13668 assay, stability of SR13668/Solutol aqueous solution: aqueous sample (theoretical 1.2000); for SR13668 assay, stability in Solutol: solid sample in Eppendorf tube
Description: A batch of 5 mg SR13668/g Solutol was made by stirring at 95° C. for 24 hrs. […] The sample was centrifuged while warm and no crystals were observed on the bottom of the tube. The sample was assayed from the top, middle and bottom of the centrifuge tube and there was no significant difference in the measurements. The SR13668 assay is an isocratic HPLC method with Fluorescence detection. The SR13668 concentration in Solutol was determined to be 5.00±0.09 mg/g (n=5).
Three types of samples from the above formulation (a. Solid Samples, b. Aqueous Solution and c. Solid stored and combined with water before assay) were stored at 25° C. (constant temperature bath) and 4° C. (refrigerator) and assayed weekly with the same HPLC/Fluorescence analytical method for 1-month.
Eppendorf tubes containing 1-mL samples of the above 5 mg SR13668/g Solutol solution were capped and stored under the two temperature conditions described above. At each time point the samples were melted and centrifuged at 95° C. No solids were ever observed in these samples.
In a 50-mL centrifuge tube, 12 g of the 5 mg SR13668/g Solutol melt was accurately weighed. The tube was tared and water, warmed to 70° C., was added to the 50 mL mark on the tube and weighed. The concentration of SR13668 in the aqueous solution was calculated based on the average SR13668/Solutol concentration of 5.00±0.09 mg/g, the weight of the Solutol and the total weight of solution in the tube. The tube was stored under the two temperature conditions described previously and the assayed amounts were compared with the theoretical. Observations were made on the tubes and there were no significant changes in the solutions and no solids were observed. The 25° C. tube did get a cloudy film layer, possibly biological growth. The layer dispersed after vigorous shaking. The 4° C. samples are cloudy, but clear up when warmed to room temperature. See results Table 8 and FIG. 5.
An accurately weighed 200 mg aliquot of the above 5 mg/g Solutol solution was stored at 25° C. and 4° C. At each time point, the solids were melted at 90° C. and 800 mg of accurately weighed 90° C. water was added. The samples were mixed and observations made. In all cases no solids were observed. A sample aliquot of the above aqueous solution was analyzed by HPLC/Fluorescence and the results compared with theoretical. See results Table 9 and FIG. 6. The analytical method is validated ±5% from theoretical. The majority of the samples fell within this limit.

[3] = stored as solid, prepared as aqueous solution, 4° C. storage, 0
[4] = stored as solid, prepared as aqueous solution, 4° C. storage, Day
[5] = stored as solid, prepared as aqueous solution, 4° C. storage, Day 7
[6] = stored as solid, prepared as aqueous solution, 4° C. storage, Day 14
[7] = stored as solid, prepared as aqueous solution, 4° C. storage, Day 21
[8] = stored as solid, prepared as aqueous solution, 4° C. storage, Day 28
[9] = stored as solid, prepared as aqueous solution, 25° C. storage, 0
[10] = stored as solid, prepared as aqueous solution, 25° C. storage, Day
[11] = stored as solid, prepared as aqueous solution, 25° C. storage, Day 7
[12] = stored as solid, prepared as aqueous solution, 25° C. storage, Day 14
[13] = stored as solid, prepared as aqueous solution, 25° C. storage, Day 21
[14] = stored as solid, prepared as aqueous solution, 25° C. storage, Day 28

CCOC(=O)c1ccc2[nH]c3c(OC)c4[nH]c5ccc(C(=O)OCC)cc5c4cc3c2c1 [SR13668, 2,10-dicarbethoxy-6-methoxy-5,7-dihydro-indolo-(2,3-b)carbazole]
aqueous solubility [1]: extremely low | solubility ([1]; 65 °C, aqueous with cosolvent or surfactant or cyclodextrin, Solutol, 65-70 ° C., HPLC): 7000 µg/mL (≈ 16300 µM) | solubility ([1]; 65 °C, aqueous with cosolvent or surfactant or cyclodextrin, Vitamin E TPGS, 65-70 ° C., UV): 5500 µg/mL (≈ 12800 µM) | solubility ([1]; 65 °C, organic solvent or mixture, Gelucire 44/14, 65-70 ° C., UV): 4260 µg/mL (≈ 9900 µM) | solubility ([1]; 65 °C, organic solvent or mixture, Gelucire 50/13, 65-70 ° C., UV): 4150 µg/mL (≈ 9640 µM) | solubility ([1]; 65 °C, organic solvent or mixture, Myrj 52, 65-70 ° C., UV): 6700 µg/mL (≈ 15600 µM) | solubility ([1]; 65 °C, organic solvent or mixture, Myrj 53, 65-70 ° C., UV): 6800 µg/mL (≈ 15800 µM) | solubility ([1]; 65 °C, organic solvent or mixture, PEG-400, 65-70 ° C., UV): 9000 µg/mL (≈ 20900 µM) | solubility ([1]; 65 °C, organic solvent or mixture, PEG-400 New, 65-70 ° C., UV): 7600 µg/mL (≈ 17700 µM) | solubility ([1]; 65 °C, organic solvent or mixture, PEG-1000, 65-70 ° C., UV): 8150 µg/mL (≈ 18900 µM) | solubility ([1]; 65 °C, organic solvent or mixture, PEG-2000, 65-70 ° C., UV): 8800 µg/mL (≈ 20400 µM) | solubility ([1]; fassgf or other biorelevant, Simulated Intestinal Fluid, RT, HPLC): 0.0075 µg/mL (≈ 0.0174 µM) | solubility ([1]; oil or lipid, Corn Oil, RT, HPLC): 108 µg/mL (≈ 251 µM) | solubility ([1]; oil or lipid, Safflower Oil, RT, HPLC): 77 µg/mL (≈ 179 µM) | solubility ([1]; oil or lipid, Sesame Oil, RT, HPLC): 47 µg/mL (≈ 109 µM) | solubility ([1]; oil or lipid, Soybean Oil, RT, HPLC): 55 µg/mL (≈ 128 µM) | solubility ([1]; oil or lipid, Sunflower Oil, RT, HPLC): 66 µg/mL (≈ 153 µM) | solubility ([1]; organic solvent or mixture, 1-octanol, RT, HPLC): 123 µg/mL (≈ 286 µM) | solubility ([1]; organic solvent or mixture, Absolute Ethanol, RT, HPLC): 75 µg/mL (≈ 174 µM) | solubility ([1]; organic solvent or mixture, Acetone, RT, HPLC): 950 µg/mL (≈ 2210 µM) | solubility ([1]; organic solvent or mixture, Acetonitrile, RT, HPLC): 84.9 µg/mL (≈ 197 µM) | solubility ([1]; organic solvent or mixture, Chemophore EL, RT, HPLC): 264 µg/mL (≈ 613 µM) | solubility ([1]; organic solvent or mixture, DMSO, RT, UV): 106000 µg/mL (≈ 246000 µM) | solubility ([1]; organic solvent or mixture, Ethanol, RT, UV): 148 µg/mL (≈ 344 µM) | solubility ([1]; organic solvent or mixture, Ethyl Acetate, RT, HPLC): 230 µg/mL (≈ 534 µM) | solubility ([1]; organic solvent or mixture, Glycerin, RT, HPLC): 47 µg/mL (≈ 109 µM) | solubility ([1]; organic solvent or mixture, Labrasol, RT, UV): 380 µg/mL (≈ 883 µM) | solubility ([1]; organic solvent or mixture, Methanol, RT, UV): 86.3 µg/mL (≈ 200 µM) | solubility ([1]; organic solvent or mixture, Methylene Chloride, RT, HPLC): 62 µg/mL (≈ 144 µM) | solubility ([1]; organic solvent or mixture, PEG-400, RT, UV): 880 µg/mL (≈ 2040 µM) | solubility ([1]; organic solvent or mixture, PEG-400 New, RT, UV): 1370 µg/mL (≈ 3180 µM) | solubility ([1]; organic solvent or mixture, Pluronic F-127, 120 ° C., HPLC): 9480 µg/mL (≈ 22000 µM) | solubility ([1]; organic solvent or mixture, Propylene Glycol, RT, HPLC): 84 µg/mL (≈ 195 µM) | solubility ([1]; Simulated Gastric Fluid, RT, HPLC): 0.014 µg/mL (≈ 0.0325 µM) | solubility ([1]; Water, RT, HPLC): 0.01 µg/mL (≈ 0.0232 µM) | stability ([2]; 5 mg SR13668/g Solutol, solid samples): stable within the error of the assay and no degradation was observed | stability ([2]; SR13668/Solutol aqueous solution): stable within error and no drug degradation was observed | SR13668 assay, stability of SR13668/Solutol aqueous solution ([2]; 4° C. storage, Day): 1.1384 mg SR13668/g Solutol | SR13668 assay, stability of SR13668/Solutol aqueous solution ([2]; 4° C. storage, Day 7): 1.1758 mg SR13668/g Solutol | SR13668 assay, stability of SR13668/Solutol aqueous solution ([2]; 4° C. storage, Day 14): 1.1981 mg SR13668/g Solutol | SR13668 assay, stability of SR13668/Solutol aqueous solution ([2]; 4° C. storage, Day 21): 1.2509 mg SR13668/g Solutol | SR13668 assay, stability of SR13668/Solutol aqueous solution ([2]; 4° C. storage, Day 28): 1.1985 mg SR13668/g Solutol | SR13668 assay, stability of SR13668/Solutol aqueous solution ([2]; 4° C. storage, Day 35): 1.1814 mg SR13668/g Solutol | SR13668 assay, stability of SR13668/Solutol aqueous solution ([2]; 25° C. storage, Day): 1.5040 mg SR13668/g Solutol | SR13668 assay, stability of SR13668/Solutol aqueous solution ([2]; 25° C. storage, Day 7): 1.1311 mg SR13668/g Solutol | SR13668 assay, stability of SR13668/Solutol aqueous solution ([2]; 25° C. storage, Day 14): 1.2256 mg SR13668/g Solutol | SR13668 assay, stability of SR13668/Solutol aqueous solution ([2]; 25° C. storage, Day 21): 1.2663 mg SR13668/g Solutol | SR13668 assay, stability of SR13668/Solutol aqueous solution ([2]; 25° C. storage, Day 28): 1.2116 mg SR13668/g Solutol | SR13668 assay, stability of SR13668/Solutol aqueous solution ([2]; 25° C. storage, Day 35): 1.1942 mg SR13668/g Solutol | SR13668 assay, stability in Solutol ([2]; 4° C. storage, 0 (t = 0 melt samples)): 5.00 mg SR13668/g Solutol | SR13668 assay, stability in Solutol ([2]; 4° C. storage, Day): 5.05 mg SR13668/g Solutol | SR13668 assay, stability in Solutol ([2]; 4° C. storage, Day 7): 4.97 mg SR13668/g Solutol | SR13668 assay, stability in Solutol ([2]; 4° C. storage, Day 14): 5.33 mg SR13668/g Solutol | SR13668 assay, stability in Solutol ([2]; 4° C. storage, Day 21): 5.06 mg SR13668/g Solutol | SR13668 assay, stability in Solutol ([2]; 4° C. storage, Day 28): 4.97 mg SR13668/g Solutol | SR13668 assay, stability in Solutol ([2]; 4° C. storage, Day 35): 4.87 mg SR13668/g Solutol | SR13668 assay, stability in Solutol ([2]; 25° C. storage, 0 (t = 0 melt samples)): 5.00 mg SR13668/g Solutol | SR13668 assay, stability in Solutol ([2]; 25° C. storage, Day): 4.93 mg SR13668/g Solutol | SR13668 assay, stability in Solutol ([2]; 25° C. storage, Day 7): 5.10 mg SR13668/g Solutol | SR13668 assay, stability in Solutol ([2]; 25° C. storage, Day 14): 5.19 mg SR13668/g Solutol | SR13668 assay, stability in Solutol ([2]; 25° C. storage, Day 21): 5.14 mg SR13668/g Solutol | SR13668 assay, stability in Solutol ([2]; 25° C. storage, Day 28): 5.00 mg SR13668/g Solutol | SR13668 assay, stability in Solutol ([2]; 25° C. storage, Day 35): 4.93 mg SR13668/g Solutol | stability ([2]; stored as solid, prepared as aqueous solution): no trends or indications that the samples are unstable | % difference from Theory [2, 3]: −6.71% | Measured mg SR13668/g Solutol [2, 3]: 0.9238 mg SR13668/g Solutol | % difference from Theory [2, 4]: −7.00% | Measured mg SR13668/g Solutol [2, 4]: 0.8804 mg SR13668/g Solutol | % difference from Theory [2, 5]: 0.78% | Measured mg SR13668/g Solutol [2, 5]: 0.9866 mg SR13668/g Solutol | % difference from Theory [2, 6]: 2.91% | Measured mg SR13668/g Solutol [2, 6]: 1.0608 mg SR13668/g Solutol | % difference from Theory [2, 7]: −2.29% | Measured mg SR13668/g Solutol [2, 7]: 0.9809 mg SR13668/g Solutol | % difference from Theory [2, 8]: −4.87% | Measured mg SR13668/g Solutol [2, 8]: 0.9160 mg SR13668/g Solutol | % difference from Theory [2, 9]: −11.50% | Measured mg SR13668/g Solutol [2, 9]: 0.8630 mg SR13668/g Solutol | % difference from Theory [2, 10]: −6.56% | Measured mg SR13668/g Solutol [2, 10]: 0.9955 mg SR13668/g Solutol | % difference from Theory [2, 11]: 3.38% | Measured mg SR13668/g Solutol [2, 11]: 1.0308 mg SR13668/g Solutol | % difference from Theory [2, 12]: 3.40% | Measured mg SR13668/g Solutol [2, 12]: 0.9609 mg SR13668/g Solutol | % difference from Theory [2, 13]: −5.45% | Measured mg SR13668/g Solutol [2, 13]: 0.9374 mg SR13668/g Solutol | % difference from Theory [2, 14]: −4.84% | Measured mg SR13668/g Solutol [2, 14]: 0.9372 mg SR13668/g Solutol
